# Source: ChEMBL document CHEMBL4330082, “Tailoring a lead-like compound targeting multiple G-quadruplex structures” (Eur J Med Chem, 2019)
# Active and inactive are the calls of the source. No cut-off for these calls is given here.
# How the values were obtained:
# Quadruplex DNA [1] = test: Binding affinity to human TERT1 G-quadruplex DNA assessed as residual binding at 60 uM after 4 mins by UV-Vis spectrophotometric analysis relative to control; type: nucleic-acid assay
# Homo sapiens [2] = species: Homo sapiens; test: Induction of telomeric DNA damage in human BJeH-LT cells expressing human TERT assessed as increase in TIF positive cells at 0.5 uM after 24 hrs by immunofluorescence assay; type: functional, cell-based
# dsDNA [3] = test: Binding affinity to synthetic 27-mer duplex DNA assessed as residual binding at 60 uM after 4 mins by UV-Vis spectrophotometric analysis relative to control; type: nucleic-acid assay
# Quadruplex DNA [4] = test: Binding affinity to synthetic cMYC G-quadruplex DNA assessed as residual binding at 60 uM after 4 mins by UV-Vis spectrophotometric analysis relative to control; type: nucleic-acid assay
# Quadruplex DNA [5] = test: Binding affinity to synthetic c-Kit2 G-quadruplex DNA assessed as residual binding at 60 uM after 4 mins by UV-Vis spectrophotometric analysis relative to control; type: nucleic-acid assay
# Quadruplex DNA [6] = test: Binding affinity to synthetic c-Kit1 G-quadruplex DNA assessed as residual binding at 60 uM after 4 mins by UV-Vis spectrophotometric analysis relative to control; type: nucleic-acid assay
# Homo sapiens [7] = species: Homo sapiens; test: Induction of telomeric DNA damage in human BJeH-LT cells expressing human TERT assessed as increase in gamma-histone H2AX levels at 0.5 uM after 24 hrs by immunofluorescence assay; type: functional, cell-based
# Quadruplex DNA [8] = test: Binding affinity to synthetic telomeric 26 G-quadruplex DNA assessed as residual binding at 60 uM after 4 mins by UV-Vis spectrophotometric analysis relative to control; type: nucleic-acid assay
# HeLa [9] = test: Inhibition of colony formation in human HeLa cells at 2 uM after 10 days by methylene blue staining-based assay; type: functional, cell-based
# Quadruplex DNA [10] = test: Induction of conformational changes in synthetic telomeric 26 G-quadruplex DNA at 1 to 5 equivalents after 5 mins by CD spectra analysis; type: nucleic-acid assay
# Quadruplex DNA [11] = test: Binding affinity to synthetic cMYC G-quadruplex DNA assessed as melting temperature compound:DNA ratio of 5:1 after 5 mins by CD spectra analysis (reference value: 82 degreeC); type: nucleic-acid assay
# dsDNA [12] = test: Binding affinity to synthetic 27-mer duplex DNA assessed as melting temperature compound:DNA ratio of 5:1 after 5 mins by CD spectra analysis (reference value: 75 degreeC); type: nucleic-acid assay
# dsDNA [13] = test: Binding affinity to synthetic 12-mer duplex DNA assessed as melting temperature compound:DNA ratio of 4:1 by 1H NMR spectroscopic analysis; type: nucleic-acid assay
# dsDNA [14] = test: Induction of conformational changes in synthetic 27-mer duplex DNA at 1 to 5 equivalents after 5 mins by CD spectra analysis; type: nucleic-acid assay
# Quadruplex DNA [15] = test: Induction of conformational changes in synthetic cMYC G-quadruplex DNA at 1 to 5 equivalents after 5 mins by CD spectra analysis; type: nucleic-acid assay
# Quadruplex DNA [16] = test: Binding affinity to synthetic telomeric 26 G-quadruplex DNA assessed as melting temperature compound:DNA ratio of 5:1 after 5 mins by CD spectra analysis (reference value: 49 degreeC); type: nucleic-acid assay
# Quadruplex DNA [17] = test: Binding affinity to synthetic modified telomeric 24 G-quadruplex DNA assessed as melting temperature compound:DNA ratio of 4:1 by 1H NMR spectroscopic analysis; type: nucleic-acid assay
# Quadruplex DNA [18] = test: Binding affinity to synthetic MYC 22 G-quadruplex DNA assessed as melting temperature compound:DNA ratio of 4:1 by 1H NMR spectroscopic analysis; type: nucleic-acid assay
# BJ = test: Cytotoxicity against in human BJ cells expressing human TERT assessed as reduction in cell viability at 1 to 2 uM incubated for 6 days by trypan blue exclusion assay; type: cell-based; conditions: 144 h
# HeLa [19] = test: Inhibition of colony formation in human HeLa cells at 0.5 to 2 uM after 10 days by methylene blue staining-based assay; type: functional
# Quadruplex DNA [20] = test: Binding affinity to Cy5-fluorescently labeled synthetic MYC 22 G-quadruplex DNA by microscale thermophoresis assay; type: nucleic-acid assay
# Quadruplex DNA [21] = test: Binding affinity to Cy5-fluorescently labeled synthetic Telomeric 26 G-quadruplex DNA by microscale thermophoresis assay; type: nucleic-acid assay
Activity (Quadruplex DNA [1]),Activity (dsDNA [3]),Activity (Quadruplex DNA [4]),Activity (Quadruplex DNA [5]),Activity (Quadruplex DNA [6]),Activity (Quadruplex DNA [8]),Structure (SMILES),Activity (Homo sapiens [2]),Activity (Homo sapiens [7]),inhibition (HeLa [9]),also measured
82%,46%,94%,91%,85%,80%,O=C1c2ccccc2C(=O)c2c1oc1c3c(ccc21)OCN(CCCn1ccnc1)C3,Active,Active,Active,
78%,22%,74%,70%,75%,76%,CC(=O)c1c(C)oc2c1c1c(c3ccccc32)OCN(CCCN2CCOCC2)C1,inactive,inactive,Active,
74%,18%,86%,82%,70%,86%,O=C1c2ccccc2C(=O)c2c1oc1c3c(ccc21)OCN(C1CCCCC1)C3,Active,Active,,Activity (Quadruplex DNA [10]): Active; Tm (Quadruplex DNA [11]): > 90 °C; Tm (dsDNA [12]): 76 °C; Activity (dsDNA [13]): inactive; Activity (dsDNA [14]): inactive; Activity (Quadruplex DNA [15]): Active; Tm (Quadruplex DNA [16]): 49 °C; Activity (Quadruplex DNA [17]): Active; Activity (Quadruplex DNA [18]): Active; Activity (BJ): Toxic; MED (HeLa [19]): 2 µM
87%,20%,90%,83%,88%,78%,O=C1c2ccccc2C(=O)c2c1oc1c3c(ccc21)OCN(CC1CCCO1)C3 (stereo not given),Active,Active,Active,
73%,16%,84%,67%,55%,73%,O=C1c2ccccc2C(=O)c2c1oc1c3c(ccc21)OCN(CCC1=CCCCC1)C3,Active,Active,Active,
76%,16%,73%,68%,72%,75%,O=C1c2ccccc2C(=O)c2c1oc1c3c(ccc21)OCN(CC1CCS(=O)(=O)C1)C3 (stereo not given),inactive,inactive,Active,
82%,0%,84%,80%,78%,80%,CC(c1ccccc1)N1COc2ccc3c4c(oc3c2C1)C(=O)c1ccccc1C4=O (stereo not given),Active,Active,,Activity (Quadruplex DNA [10]): Active; Tm (Quadruplex DNA [11]): > 90 °C; Tm (dsDNA [12]): 76 °C; Activity (dsDNA [13]): inactive; Kd (Quadruplex DNA [20]): 13 µM; Activity (dsDNA [14]): inactive; Activity (Quadruplex DNA [15]): Active; Tm (Quadruplex DNA [16]): 50 °C; Kd (Quadruplex DNA [21]): 26 µM; Activity (Quadruplex DNA [17]): Active; Activity (Quadruplex DNA [18]): Active; Activity (BJ): Non-Toxic
91%,2%,93%,92%,90%,86%,O=C1c2ccccc2C(=O)c2c1oc1c3c(ccc21)OCN(Cc1ccco1)C3,Active,Active,Active,
89%,28%,94%,88%,90%,79%,O=C1c2ccccc2C(=O)c2c1oc1c3c(ccc21)OCN(Cc1cccnc1)C3,inactive,inactive,Active,
92%,33%,89%,84%,77%,80%,O=C1c2ccccc2C(=O)c2c1oc1c3c(ccc21)OCN(CCCN1CCOCC1)C3,Active,Active,Active,
78%,12%,87%,83%,76%,80%,O=C1c2ccccc2C(=O)c2c1oc1c3c(ccc21)OCN(Cc1ccccc1)C3,Active,Active,Active,
